Laboratory results: patent US8877948B2, “Synthesis process of polyol carbonate from polyols, conducted in using a solvent selective for polyols carbonates” (Arkema France, priority 2008, dated 2014)

Experiment: Solubility of glycerol carbonate, glycerol and urea in selective solvents
Type: physicochemical
Conditions: at 25° C.

With `CC(C)C#N` [Isobutyronitrile] the “Solubility of Glycerol Carbonate” value (solute glycerol carbonate in the listed solvent) was over 500 mg/mL, the “Solubility of Glycerol” value (solute glycerol in the listed solvent) was 10 mg/mL and the “Solubility of Urea” value (solute urea in the listed solvent) was 60 mg/mL.
